Our source for the IC50 values is patent US20070197660A1, “Compounds for modulating cell proliferation” (The Hospital for Sick Children, priority 2003, published 2007).

The structures appear in SMILES notation. Where two headings read alike, the source gives them in different places.

Holding throughout (assay type): cell-based
One assay has as its system Z119 cells. The experiment in a line: Killing of Philadelphia positive Z119 acute lymphoblastic leukemia cells in culture (colony assay). Particulars: 168 h, Z119 Ph+ ALL cells, colonies >20 cells counted at 7 days or earlier, methylcellulose, read-out: ALL (Z 119) IC 50. The procedure: Z119 cells are plated in 1 mL volumes at a density of 1×10^4 cells/mL, in the absence of exogenous growth factors, into 35 mm petri dishes (Nunc, Gibco) containing IMDM (OCI, Toronto) plus 20% FCS (Cansera Rexdale, ON) in 0.9% (vol/vol) methylcellulose (Fluka, Switzerland) with various concentrations of test compounds. Cultures are set at 37° C., 5% CO2 in a humidified atmosphere. Colonies consisting of more than 20 cells are counted at 7 days or earlier using an inverted microscope. Results see Tables 4 and 8.

Another assay relates to OCI-AML-3 cells. The experiment in a line: Killing of AML3 acute myeloid leukemia cells in culture (colony assay). The following applies: Homo sapiens, colonies >20 cells scored at 5-6 days, methylcellulose. The procedure:
OCI-AML-3 cells are plated in 35 mm petri dishes (Nunc, Gibco) in 1 mL volumes at a density of 3.3×10^3 cells/mL, in the absence of exogenous growth factors, containing alpha MEM plus 20% FCS (Cansera, Rexdale Ont.), and 0.9% (vol/vol) methylcellulose (Fluka, Switzerland) and various concentrations of test compounds. Cell cultures are incubated in a humidified atmosphere at 37° C. with 5% CO2. Colonies containing more than 20 cells are scored, using an inverted microscope, at 5-6 days. Results see Tables 4 and 8.

The subject of another assay is NBM (BFU-E). The experiment in a line: Effect upon normal bone marrow differentiation in culture (CFU-GEMM assay, BFU-E). Particulars: BFU-E colonies. The source says: A CFU-GEMM assay may be performed according to Fauser and Messner (1978, Blood, 52(6) 143-8) and Messner and Fausser (1980, Blut, 41(5) 327-33).
[1] abbreviates: Table 8, read-out: AML (OCI AML-3) IC 50.
[2] abbreviates: Table 8, read-out: NBM (BFU-E) IC 50.
Where [3] appears, read: Table 4, read-out: AML (OCI AML-3) IC 50.
Where [4] appears, read: Table 4, read-out: NBM (BFU-E) IC 50.

On to `CS(=O)(=O)/C(C#N)=C/C=C/c1ccc(O)c(O)c1` [CRVIII-53, 5-(3,4-Dihydroxyphenyl)-2-methanesulfonyl-penta-2E,4E-dienenitrile], for which the IC50 in the assay with Z119 cells (Table 8) was 450 nM; in the assay on OCI-AML-3 cells (setting [1]), 250 to 500 nM; in the assay on NBM (BFU-E) (setting [2]) it was at most 10000 nM.
For `N#C/C(=C\C=C\c1ccc(O)c(O)c1)S(=O)(=O)c1ccccn1` [CRVIII-50, 5-(3,4-Dihydroxyphenyl)-2-(pyridine-2-sulfonyl)-penta-2E,4E-dienenitrile], in that order: at least 170 nM, at least 250 nM and at most 5000 nM.
`N#C/C(=C\C=C\c1ccc(O)c(O)c1)S(=O)(=O)c1ccc(Cl)cc1` [CRVIII-51, 2-(4-Chlorobenzenesulfonyl)-5-(3,4-dihydroxyphenyl)-penta-2E,4E-dienenitrile]: the IC50 with Z119 cells (Table 8) was 230 nM; with OCI-AML-3 cells (setting [1]) it was 250 to 500 nM; in the assay on NBM (BFU-E) (setting [2]), at least 5000 nM.
As to `COCCOCCOCCOC(=O)/C(C#N)=C/C=C/c1cc(OC)c(O)c(OC)c1` [GRIV-46, 2-Cyano-5-(4-hydroxy-3,5-dimethoxyphenyl)-penta-2E,4E-dienoic acid 2-[2-(2-methoxyethoxy)ethoxy]ethyl ester], the IC50 is above 500 nM with Z119 cells (Table 4), at least 500 nM in the assay on OCI-AML-3 cells (setting [3]) and at least 10000 nM in the assay on NBM (BFU-E) (setting [4]).
Take `Cc1ccc(S(=O)(=O)/C(C#N)=C/C=C/c2ccc(O)c(O)c2)cc1` [CRVIII-52, 5-(3,4-Dihydroxyphenyl)-2-(toluene-4-sulfonyl)-penta-2E,4E-dienenitrile]: the IC50 is 250 to 500 nM in the assay on Z119 cells (Table 8), 250 to 500 nM in the assay on OCI-AML-3 cells (setting [1]) and at most 10000 nM with NBM (BFU-E) (setting [2]).
Take `COc1cc(/C=C/C=C(\C#N)C(=O)OCc2ccccc2)cc(OC)c1O` [CRIX-38, 2-Cyano-5-(4-hydroxy-3,5-dimethoxyphenyl)-penta-2E,4E-dienoic acid benzyl ester]: the IC50 is above 1000 nM in the assay with Z119 cells (Table 4), above 500 nM with OCI-AML-3 cells (setting [3]) and at most 10000 nM in the assay with NBM (BFU-E) (setting [4]).
Turning to `COc1cc(/C=C/C=C(\C#N)S(=O)(=O)c2ccccc2)cc(OC)c1O` [CRVIII-34, 2-Benzenesulfonyl-5-(4-hydroxy-3,5-dimethoxyphenyl)-penta-2E,4E-dienenitrile], the IC50 in the assay with Z119 cells (Table 8) was above 1000 nM; in the assay with OCI-AML-3 cells (setting [1]), above 500 nM; with NBM (BFU-E) (setting [2]), at most 10000 nM.
Turning to `N#C/C(=C\C=C\c1ccc(O)c(O)c1)C(=O)OCc1ccccc1` [CRIX-39, 2-Cyano-5-(3,4-dihydroxyphenyl)-penta-2E,4E-dienoic acid benzyl ester], the IC50 in the assay with Z119 cells (Table 4) is at least 600 nM; in the assay with OCI-AML-3 cells (setting [3]), 90 nM; in the assay with NBM (BFU-E) (setting [4]), 8000 nM.
For `COCCOCCOCCOC(=O)/C(C#N)=C/C=C/c1ccc(O)c(O)c1` [CRIV-42, 2-Cyano-5-(3,4-dihydroxyphenyl)-penta-2E,4E-dienoic acid 2-[2-(2-methoxyethoxy)ethoxy]ethyl ester], in that order: at least 500 nM, 90 nM and at least 10000 nM.
Regarding `N#C/C(=C\C=C\c1ccc([N+](=O)[O-])cc1)S(=O)(=O)c1ccccc1` [CRVIII-35, 2-Benzenesulfonyl-5-(4-nitrophenyl)-penta-2E,4E-dienenitrile], the IC50 was above 1000 nM in the assay on Z119 cells (Table 8), above 500 nM in the assay with OCI-AML-3 cells (setting [1]) and above 5000 nM in the assay on NBM (BFU-E) (setting [2]).
Take `N#C/C(=C\C=C\c1ccc(O)c(O)c1)S(=O)(=O)c1ccccc1` [CRVIII-33, 2-Benzenesulfonyl-5-(3,4-dihydroxyphenyl)-penta-2E,4E-dienenitrile]: the IC50 in the assay with Z119 cells (Table 8) is at least 550 nM; in the assay on OCI-AML-3 cells (setting [1]), above 500 nM; with NBM (BFU-E) (setting [2]), 12000 nM.
